According to patent US20200017495A1, “NOVEL HETEROCYCLIC COMPOUNDS AND THEIR USE IN PREVENTING OR TREATING BACTERIAL INFECTIONS” (priority 2017, published 2020):

Legend:
Experiment in all cases: MIC of compounds alone and combined with antibacterials, broth microdilution (CLSI)
Assay type in all cases: cell-based
[1] = test system: Morganella morganii (MMO) isolates; details: strain MMO UFR247; genotype DHA-1
In short: (§1)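 Log-phase isolates were inoculated at a final 5.10^5 CFU/mL in cation-adjusted Mueller-Hinton broth and incubated 16-20 h at 35° C in ambient air. MIC was the lowest concentration preventing visible growth; for combinations, the antibacterial MIC was read at each compound concentration.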

[2] = test system: Citrobacter koseri (CKR) isolates
In short: as §1

[3] = test system: Providencia rettgeri (PRE) isolates
In short: as §1

[4] = test system: Klebsiella pneumoniae (KPN) isolates
In short: as §1

C=CC1=C(C(=O)O)N2C(=O)[C@@H](NC(=O)/C(=N\OCC(=O)O)c3csc(N)n3)[C@H]2SC1 [FIX, Cefixime]
MIC [1]: 16 µg/mL
MIC ATB in combination ([2]; CKO ROU, AF2 @ 8 μg/mL): 0.5 µg/mL
MIC ATB in combination ([2]; CKO ROU, AF3 @ 8 μg/mL): 1 µg/mL
MIC ATB in combination ([2]; CKO ROU, CLA @ 4 μg/mL): 2 µg/mL
MIC ATB in combination ([2]; CKO UFR149, AF2 @ 8 μg/mL): <0.25 µg/mL
MIC ATB in combination ([2]; CKO UFR149, AF3 @ 8 μg/mL): <0.25 µg/mL
MIC ATB in combination ([2]; CKO UFR149, CLA @ 4 μg/mL): 1 µg/mL
MIC ATB in combination ([2]; CKO UFR150, AF2 @ 8 μg/mL): 2 µg/mL
MIC ATB in combination ([2]; CKO UFR150, AF3 @ 8 μg/mL): 2 µg/mL
MIC ATB in combination ([2]; CKO UFR150, CLA @ 4 μg/mL): 2 µg/mL
MIC ([2]; strain CKO ROU, genotype TEM-1, SHV-12, CTX-M-15, OXA-1, OXA-48): 1 µg/mL
MIC ([2]; strain CKO UFR149, genotype OXA-48): 0.5 µg/mL
MIC ([2]; strain CKO UFR150, genotype TEM-1, OXA-48): 2 µg/mL
MIC ATB in combination ([3]; PRE UFR99, AF2 @ 8 μg/mL): >128 µg/mL
MIC ATB in combination ([3]; PRE UFR99, AF3 @ 8 μg/mL): >128 µg/mL
MIC ATB in combination ([3]; PRE UFR99, CLA @ 4 μg/mL): >128 µg/mL
MIC ([3]; strain PRE UFR96, genotype CTX-M-15, NDM-1): >128 µg/mL
MIC ATB in combination ([3]; strain PRE UFR96, with AF2 @ 8 μg/mL): <0.25 µg/mL
MIC ATB in combination ([3]; strain PRE UFR96, with AF3 @ 8 μg/mL): <0.25 µg/mL
MIC ATB in combination ([3]; strain PRE UFR96, with CLA @ 4 μg/mL): >128 µg/mL
MIC ([3]; strain PRE UFR97, genotype TEM-1, NDM-1): >128 µg/mL
MIC ATB in combination ([3]; strain PRE UFR97, with AF2 @ 8 μg/mL): >128 µg/mL
MIC ATB in combination ([3]; strain PRE UFR97, with AF3 @ 8 μg/mL): >128 µg/mL
MIC ATB in combination ([3]; strain PRE UFR97, with CLA @ 4 μg/mL): >128 µg/mL
MIC ([3]; strain PRE UFR99, genotype OXA-1, OXA-181): >128 µg/mL
MIC ([3]; strain PRE UFR236, genotype TEM-1, OXA-48): 32 µg/mL
MIC ATB in combination ([3]; strain PRE UFR236, with AF2 @ 8 μg/mL): <=0.25 μg/mL
MIC ATB in combination ([3]; strain PRE UFR236, with AF3 @ 8 μg/mL): <=0.25 μg/mL
MIC ATB in combination ([3]; strain PRE UFR236, with CLA @ 4 μg/mL): 32 µg/mL
MIC ATB in combination ([4]; KPN 6299, AF2 @ 8 μg/mL): <=0.25 μg/mL
MIC ATB in combination ([4]; KPN 6299, AF3 @ 8 μg/mL): <=0.25 μg/mL
MIC ATB in combination ([4]; KPN 6299, CLA @ 4 μg/mL): 8 µg/mL
MIC ATB in combination ([4]; KPN 110376, AF2 @ 8 μg/mL): <0.25 µg/mL
MIC ATB in combination ([4]; KPN 110376, AF3 @ 8 μg/mL): <=0.25 μg/mL
MIC ATB in combination ([4]; KPN 110376, CLA @ 4 μg/mL): 128 µg/mL
MIC ATB in combination ([4]; KPN 121206, AF2 @ 8 μg/mL): >128 µg/mL
MIC ATB in combination ([4]; KPN 121206, AF3 @ 8 μg/mL): >128 µg/mL
MIC ATB in combination ([4]; KPN 121206, CLA @ 4 μg/mL): >128 µg/mL
MIC ATB in combination ([4]; KPN 131119, AF2 @ 8 μg/mL): <=0.25 μg/mL
MIC ATB in combination ([4]; KPN 131119, AF3 @ 8 μg/mL): <=0.25 μg/mL
MIC ATB in combination ([4]; KPN 131119, CLA @ 4 μg/mL): >128 µg/mL
MIC ATB in combination ([4]; KPN 140513, AF2 @ 8 μg/mL): 8 µg/mL
MIC ATB in combination ([4]; KPN 140513, AF3 @ 8 μg/mL): 32 µg/mL
MIC ATB in combination ([4]; KPN 140513, CLA @ 4 μg/mL): >128 µg/mL
MIC ATB in combination ([4]; KPN 160143, AF2 @ 8 μg/mL): <0.25 µg/mL
MIC ATB in combination ([4]; KPN 160143, AF3 @ 8 μg/mL): <0.25 µg/mL
MIC ATB in combination ([4]; KPN 160143, CLA @ 4 μg/mL): 2 µg/mL
MIC ATB in combination ([4]; KPN 190128, AF2 @ 8 μg/mL): 1 µg/mL
MIC ATB in combination ([4]; KPN 190128, AF3 @ 8 μg/mL): 1 µg/mL
MIC ATB in combination ([4]; KPN 190128, CLA @ 4 μg/mL): 0.5 µg/mL
MIC ATB in combination ([4]; KPN 190270, AF2 @ 8 μg/mL): 0.5 µg/mL
MIC ATB in combination ([4]; KPN 190270, AF3 @ 8 μg/mL): 0.5 µg/mL
MIC ATB in combination ([4]; KPN 190270, CLA @ 4 μg/mL): 1 µg/mL
MIC ATB in combination ([4]; KPN 190425, AF2 @ 8 μg/mL): 0.5 µg/mL
MIC ATB in combination ([4]; KPN 190425, AF3 @ 8 μg/mL): <=0.25 μg/mL
MIC ATB in combination ([4]; KPN 190425, CLA @ 4 μg/mL): <=0.25 μg/mL
MIC ATB in combination ([4]; KPN 190551, AF2 @ 8 μg/mL): <0.25 µg/mL
MIC ATB in combination ([4]; KPN 190551, AF3 @ 8 μg/mL): <0.25 µg/mL
MIC ATB in combination ([4]; KPN 190551, CLA @ 4 μg/mL): <=0.25 μg/mL
MIC ATB in combination ([4]; KPN 200047, AF2 @ 8 μg/mL): <0.25 µg/mL
MIC ATB in combination ([4]; KPN 200047, AF3 @ 8 μg/mL): <0.25 µg/mL
MIC ATB in combination ([4]; KPN 200047, CLA @ 4 μg/mL): <=0.25 μg/mL
MIC ATB in combination ([4]; KPN 200327, AF2 @ 8 μg/mL): <0.25 µg/mL
MIC ATB in combination ([4]; KPN 200327, AF3 @ 8 μg/mL): <0.25 µg/mL
MIC ATB in combination ([4]; KPN 200327, CLA @ 4 μg/mL): <=0.25 μg/mL
MIC ATB in combination ([4]; KPN 260251, AF2 @ 8 μg/mL): <=0.25 μg/mL
MIC ATB in combination ([4]; KPN 260251, AF3 @ 8 μg/mL): <=0.25 μg/mL
MIC ATB in combination ([4]; KPN 260251, CLA @ 4 μg/mL): 32 µg/mL
MIC ATB in combination ([4]; KPN 260252, AF2 @ 8 μg/mL): 16 µg/mL
MIC ATB in combination ([4]; KPN 260252, AF3 @ 8 μg/mL): 16 µg/mL
MIC ATB in combination ([4]; KPN 260252, CLA @ 4 μg/mL): 128 µg/mL
MIC ATB in combination ([4]; KPN 260376, AF2 @ 8 μg/mL): <0.25 µg/mL
MIC ATB in combination ([4]; KPN 260376, AF3 @ 8 μg/mL): <0.25 µg/mL
MIC ATB in combination ([4]; KPN 260376, CLA @ 4 μg/mL): <=0.25 μg/mL
MIC ATB in combination ([4]; KPN 270077, AF2 @ 8 μg/mL): 0.5 µg/mL
MIC ATB in combination ([4]; KPN 270077, AF3 @ 8 μg/mL): <=0.25 μg/mL
MIC ATB in combination ([4]; KPN 270077, CLA @ 4 μg/mL): 0.5 µg/mL
MIC ATB in combination ([4]; KPN 700603, AF2 @ 8 μg/mL): <=0.25 μg/mL
MIC ATB in combination ([4]; KPN 700603, AF3 @ 8 μg/mL): 0.5 µg/mL
MIC ATB in combination ([4]; KPN 700603, CLA @ 4 μg/mL): 0.5 µg/mL
MIC ATB in combination ([4]; KPN ARA, AF2 @ 8 μg/mL): <=0.25 μg/mL
MIC ATB in combination ([4]; KPN ARA, AF3 @ 8 μg/mL): <0.25 µg/mL
MIC ATB in combination ([4]; KPN ARA, CLA @ 4 μg/mL): 128 µg/mL
MIC ATB in combination ([4]; KPN BAA-1898, AF2 @ 8 μg/mL): <=0.25 μg/mL
MIC ATB in combination ([4]; KPN BAA-1898, AF3 @ 8 μg/mL): <=0.25 μg/mL
MIC ATB in combination ([4]; KPN BAA-1898, CLA @ 4 μg/mL): 64 µg/mL
MIC ATB in combination ([4]; KPN LIB, AF2 @ 8 μg/mL): <0.25 µg/mL
MIC ATB in combination ([4]; KPN LIB, AF3 @ 8 μg/mL): <0.25 µg/mL
MIC ATB in combination ([4]; KPN LIB, CLA @ 4 μg/mL): <=0.25 μg/mL
MIC ATB in combination ([4]; KPN UFR22_O, AF2 @ 8 μg/mL): <=0.25 μg/mL
MIC ATB in combination ([4]; KPN UFR22_O, AF3 @ 8 μg/mL): <=0.25 μg/mL
MIC ATB in combination ([4]; KPN UFR22_O, CLA @ 4 μg/mL): <=0.25 μg/mL
MIC ATB in combination ([4]; KPN UFR23, AF2 @ 8 μg/mL): <=0.25 μg/mL
MIC ATB in combination ([4]; KPN UFR23, AF3 @ 8 μg/mL): <0.25 µg/mL
MIC ATB in combination ([4]; KPN UFR23, CLA @ 4 μg/mL): <=0.25 μg/mL
